This passage reports k obs / 1 and Ratio results from ChEMBL document CHEMBL1133055, “6-Acylamino-2-[(alkylsulfonyl)oxy]-1H-isoindole-1,3-dione mechanism-based inhibitors of human leukocyte elastase” (Bioorg Med Chem Lett, 2000).

Test [1] concerns the target T1, Neutrophil elastase (Homo sapiens) (UniProt P08246).
T1 sequence (whole entry): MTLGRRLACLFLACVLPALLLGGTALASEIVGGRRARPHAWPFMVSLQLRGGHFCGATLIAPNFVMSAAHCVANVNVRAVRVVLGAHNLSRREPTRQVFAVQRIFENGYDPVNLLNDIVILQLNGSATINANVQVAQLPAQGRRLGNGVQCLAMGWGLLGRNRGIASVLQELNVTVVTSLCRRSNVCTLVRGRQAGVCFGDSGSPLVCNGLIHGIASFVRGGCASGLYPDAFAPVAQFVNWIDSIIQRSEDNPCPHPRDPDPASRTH
The experiment in a line: Inhibition of human leukocyte elastase. Details: unit not given here.

For test [2], the species on record is Homo sapiens. The experiment in a line: In vitro inhibition of Serine protease chymotrypsin. Set-up: unit not given here.
The species named for test [3] is Homo sapiens. The experiment in a line: Ratio of kobs/[l] for human leukocyte elastase and kobs/[l] for chymotrypsin.

For the compound `COC(=O)C(=O)Nc1ccc2c(c1)C(=O)N(OS(C)(=O)=O)C2=O`, the k obs / 1 in test [1] turned out to be 30000; in the test filed under Homo sapiens [2], 5400. Further, the Ratio in the test filed under Homo sapiens [3] is 5.6.

As for `CS(=O)(=O)ON1C(=O)c2ccc(NC(=O)c3cccc4ccccc34)cc2C1=O`, the k obs / 1 stood at 25000 in test [1] and 3300 in the test filed under Homo sapiens [2]. For the same compound, the Ratio in the test listed under Homo sapiens [3] stood at 7.6.

Consider `Cc1ccc(S(=O)(=O)N[C@@H](Cc2ccccc2)C(=O)Nc2ccc3c(c2)C(=O)N(OS(C)(=O)=O)C3=O)cc1`, for which the values for the k obs / 1 (in test [1]; in the test listed under Homo sapiens [2]) were 160000 and 11000, respectively. For the same compound, in the test listed under Homo sapiens [3], the Ratio came to 15.

Take `CCS(=O)(=O)ON1C(=O)c2ccc(NC(=O)C(=O)OC)cc2C1=O`: the results for the k obs / 1 (in test [1]; in the test filed under Homo sapiens [2]) were 56000 and 5300, respectively. Further, the Ratio in the test listed under Homo sapiens [3] is 11.

`CCS(=O)(=O)ON1C(=O)c2ccc(NC(=O)CCC(=O)OC)cc2C1=O`: the results for the k obs / 1 (in test [1]; in the test filed under Homo sapiens [2]) were 25000 and 9600, respectively. For the same compound, the Ratio in the test listed under Homo sapiens [3] was determined as 2.6.

For `CS(=O)(=O)ON1C(=O)c2ccc(NC(=O)c3ccccc3)cc2C1=O`, the k obs / 1 amounted to 25000 in test [1] and 3600 in the test listed under Homo sapiens [2]. Moreover, in the test filed under Homo sapiens [3], the Ratio amounted to 6.9.

Consider `CS(=O)(=O)ON1C(=O)c2ccc(NC(=O)/C=C/c3ccccc3)cc2C1=O`, for which the k obs / 1 is 20000 in test [1] and 1600 in the test filed under Homo sapiens [2]. Besides, the Ratio in the test listed under Homo sapiens [3] is 13.

Take `CS(=O)(=O)ON1C(=O)c2ccc(N)cc2C1=O`: the k obs / 1 in test [1] stood at 110000; in the test filed under Homo sapiens [2], 12000. Moreover, the Ratio in the test filed under Homo sapiens [3] turned out to be 9.2.

Regarding `CCS(=O)(=O)ON1C(=O)c2ccc(NC(=O)CCCC(=O)OC)cc2C1=O`, the k obs / 1 came to 220000 in test [1] and 14000 in the test filed under Homo sapiens [2]. The Ratio in the test filed under Homo sapiens [3] came out at 16.

Regarding `CS(=O)(=O)ON1C(=O)c2ccc(NC(=O)CCc3ccccc3)cc2C1=O`, the figures for the k obs / 1 (in test [1]; in the test listed under Homo sapiens [2]) were 9700 and 4800, respectively. The Ratio in the test filed under Homo sapiens [3] was 2.

As to `COC(=O)CCCC(=O)Nc1ccc2c(c1)C(=O)N(OS(C)(=O)=O)C2=O`, the k obs / 1 in test [1] turned out to be 57000; in the test filed under Homo sapiens [2], 6600. Also, the Ratio in the test listed under Homo sapiens [3] stood at 8.6.

With `CCS(=O)(=O)ON1C(=O)c2ccc(N)cc2C1=O`, the k obs / 1 in test [1] stood at 60000; in the test listed under Homo sapiens [2] it was 13000. In addition, in the test listed under Homo sapiens [3], the Ratio was 4.6.
